Source: patent US20070128217A1 (priority 2003, published 2007)

Experiments:
[1] = test system: rabbit serum obtained by immunizing a rabbit with the SARS-CoV strain Frankfurt 1; format: binding; set-up: Binding of a rabbit serum to linear peptides / Binding of a rabbit serum to looped peptides / Rabbit serum linear peptides / Rabbit serum looped peptides / Binding of a rabbit serum to linear peptides of protein N of SARS-CoV Urbani (Rabbit serum linear peptides) / Binding of a rabbit serum to looped/cyclic peptides of protein N of SARS-CoV Urbani (Rabbit serum looped peptides): unit not given here
[2] = test system: recombinant human anti-SARS-CoV antibody 03-018; format: binding; set-up: Binding of antibody 03-018 to linear peptides of the N protein of SARS-CoV Urbani / Binding of antibody 03-018 to looped/cyclic peptides of the N protein of SARS-CoV Urbani: unit not given here
[3] = test system: antibodies in sera from SARS patients (sera 1a, 1b, 2, 6, 37, 62, London, SARS-yellow, SARS-green); format: binding, human; set-up: Binding of serum 6 to linear peptides of protein X1 of SARS-CoV Urbani / Binding of serum 37 to linear peptides of protein X1 of SARS-CoV Urbani / Binding of serum 6 to looped/cyclic peptide (PEPSCAN-ELISA) / Binding of serum 37 to looped/cyclic peptide (PEPSCAN-ELISA) / Binding of serum 37 to looped/cyclic peptides of protein X1 of SARS-CoV Urbani / Binding of serum 6 to linear peptides of protein X2 / Binding of serum 37 to linear peptides of protein X2 / Binding of serum 37 to looped/cyclic peptides of protein X2 of SARS-CoV Urbani / Binding of serum 6 to linear peptides of protein M of SARS-CoV Urbani / Binding of serum 37 to linear peptides of protein M of SARS-CoV Urbani / Binding of serum 6 to looped/cyclic peptides of protein M of SARS-CoV Urbani / Binding of serum 37 to looped/cyclic peptides of protein M of SARS-CoV Urbani / Binding of serum 6 to linear peptides of protein X3 of SARS-CoV Urbani / Binding of serum 37 to linear peptides of protein X3 of SARS-CoV Urbani / Binding of serum 37 to looped/cyclic peptides of protein X3 of SARS-CoV Urbani / Binding of serum 6 to linear peptides of protein X4 of SARS-CoV Urbani / Binding of serum 37 to linear peptides of protein X4 of SARS-CoV Urbani / Binding of serum 37 to looped/cyclic peptides of protein X4 of SARS-CoV Urbani / Binding of serum 6 to linear peptides of protein X5 of SARS-CoV Urbani / Binding of serum 37 to linear peptides of protein X5 of SARS-CoV Urbani / Binding of serum 37 to looped/cyclic peptides of protein X5 of SARS-CoV Urbani / Binding of serum 6 to linear peptides of protein N of SARS-CoV Urbani / Binding of serum 37 to linear peptides of protein N of SARS-CoV Urbani / Binding of serum 6 to linear peptide (PEPSCAN-ELISA) / Binding of serum 1a to looped/cyclic peptides of protein N of SARS-CoV Urbani / Binding of serum 1b to looped/cyclic peptides of protein N of SARS-CoV Urbani / Binding of serum 2 to looped/cyclic peptides of protein N of SARS-CoV Urbani / Binding of serum 6 to looped/cyclic peptides of protein N of SARS-CoV Urbani / Binding of serum 37 to looped/cyclic peptides of protein N of SARS-CoV Urbani / Binding of serum 62 to looped/cyclic peptides of protein N of SARS-CoV Urbani / Binding of serum London to looped/cyclic peptides of protein N of SARS-CoV Urbani / Binding of serum SARS-green to looped/cyclic peptides of protein N of SARS-CoV Urbani: unit not given here
[4] = test system: control sera (pooled serum of ten healthy LUMC hospital workers; commercial negative donor pooled serum from the Dutch bloodbank); format: binding, human

HIDAYKTFPPTEPKK
Binding of a rabbit serum to linear peptides of protein N of SARS-CoV Urbani (Rabbit serum linear peptides) [1]: 0.1 | Binding of a rabbit serum to looped/cyclic peptides of protein N of SARS-CoV Urbani (Rabbit serum looped peptides) [1]: 0.0 | Binding of antibody 03-018 to linear peptides of the N protein of SARS-CoV Urbani [2]: 0.1 | Binding of antibody 03-018 to looped/cyclic peptides of the N protein of SARS-CoV Urbani [2]: 0.2 | Binding of serum 1a to linear peptides of protein N of SARS-CoV Urbani [3]: 0.2 | Binding of serum 1a to looped/cyclic peptides of protein N of SARS-CoV Urbani [3]: 0.2 | Binding of serum 1b to linear peptides of protein N of SARS-CoV Urbani [3]: 0.1 | Binding of serum 1b to looped/cyclic peptides of protein N of SARS-CoV Urbani [3]: 0.1 | Binding of serum 2 to linear peptides of protein N of SARS-CoV Urbani [3]: 0.2 | Binding of serum 2 to looped/cyclic peptides of protein N of SARS-CoV Urbani [3]: 0.2 | Binding of serum 6 to linear peptides of protein N of SARS-CoV Urbani [3]: 0.2 | Binding of serum 6 to looped/cyclic peptides of protein N of SARS-CoV Urbani [3]: 0.1 | Binding of serum 37 to linear peptides of protein N of SARS-CoV Urbani [3]: 0.6 | Binding of serum 37 to looped/cyclic peptides of protein N of SARS-CoV Urbani [3]: 0.3 | Binding of serum 62 to linear peptides of protein N of SARS-CoV Urbani [3]: 0.6 | Binding of serum 62 to looped/cyclic peptides of protein N of SARS-CoV Urbani [3]: 0.2 | Binding of serum London to linear peptides of protein N of SARS-CoV Urbani [3]: 0.4 | Binding of serum London to looped/cyclic peptides of protein N of SARS-CoV Urbani [3]: 0.3 | Binding of serum SARS-green to linear peptides of protein N of SARS-CoV Urbani [3]: 0.2 | Binding of serum SARS-green to looped/cyclic peptides of protein N of SARS-CoV Urbani [3]: 0.0 | Binding of serum SARS-yellow to linear peptides of protein N of SARS-CoV Urbani [3]: 0.5 | Binding of serum SARS-yellow to looped/cyclic peptides of protein N of SARS-CoV Urbani [3]: 0.0 | Control Serum Blood-Bank Looped peptides [4]: 0.4 | Control serum Blood-bank linear peptides [4]: 0.6 | Control serum LUMC linear peptides [4]: 0.7 | Control serum LUMC looped peptides [4]: 0.3

HWPQIAQFAPSASAF
Binding of a rabbit serum to linear peptides of protein N of SARS-CoV Urbani (Rabbit serum linear peptides) [1]: 0.1 | Binding of a rabbit serum to looped/cyclic peptides of protein N of SARS-CoV Urbani (Rabbit serum looped peptides) [1]: 0.7 | Binding of antibody 03-018 to linear peptides of the N protein of SARS-CoV Urbani [2]: 0.1 | Binding of antibody 03-018 to looped/cyclic peptides of the N protein of SARS-CoV Urbani [2]: 0.2 | Binding of serum 1a to linear peptides of protein N of SARS-CoV Urbani [3]: 0.3 | Binding of serum 1a to looped/cyclic peptides of protein N of SARS-CoV Urbani [3]: 0.5 | Binding of serum 1b to linear peptides of protein N of SARS-CoV Urbani [3]: 0.2 | Binding of serum 1b to looped/cyclic peptides of protein N of SARS-CoV Urbani [3]: 0.3 | Binding of serum 2 to linear peptides of protein N of SARS-CoV Urbani [3]: 0.2 | Binding of serum 2 to looped/cyclic peptides of protein N of SARS-CoV Urbani [3]: 0.5 | Binding of serum 6 to linear peptides of protein N of SARS-CoV Urbani [3]: 0.2 | Binding of serum 6 to looped/cyclic peptides of protein N of SARS-CoV Urbani [3]: 0.4 | Binding of serum 37 to linear peptides of protein N of SARS-CoV Urbani [3]: 0.8 | Binding of serum 37 to looped/cyclic peptides of protein N of SARS-CoV Urbani [3]: 0.8 | Binding of serum 62 to linear peptides of protein N of SARS-CoV Urbani [3]: 0.7 | Binding of serum 62 to looped/cyclic peptides of protein N of SARS-CoV Urbani [3]: 1.0 | Binding of serum London to linear peptides of protein N of SARS-CoV Urbani [3]: 0.6 | Binding of serum London to looped/cyclic peptides of protein N of SARS-CoV Urbani [3]: 0.6 | Binding of serum SARS-green to linear peptides of protein N of SARS-CoV Urbani [3]: 0.4 | Binding of serum SARS-green to looped/cyclic peptides of protein N of SARS-CoV Urbani [3]: 0.6 | Binding of serum SARS-yellow to linear peptides of protein N of SARS-CoV Urbani [3]: 0.8 | Binding of serum SARS-yellow to looped/cyclic peptides of protein N of SARS-CoV Urbani [3]: 0.6 | Control Serum Blood-Bank Looped peptides [4]: 0.8 | Control serum Blood-bank linear peptides [4]: 0.8 | Control serum LUMC linear peptides [4]: 0.7 | Control serum LUMC looped peptides [4]: 0.8

IAQFAPSASAFFGMS
Binding of a rabbit serum to linear peptides of protein N of SARS-CoV Urbani (Rabbit serum linear peptides) [1]: 0.2 | Binding of a rabbit serum to looped/cyclic peptides of protein N of SARS-CoV Urbani (Rabbit serum looped peptides) [1]: 0.4 | Binding of antibody 03-018 to linear peptides of the N protein of SARS-CoV Urbani [2]: 0.1 | Binding of antibody 03-018 to looped/cyclic peptides of the N protein of SARS-CoV Urbani [2]: 0.3 | Binding of serum 1a to linear peptides of protein N of SARS-CoV Urbani [3]: 0.2 | Binding of serum 1a to looped/cyclic peptides of protein N of SARS-CoV Urbani [3]: 0.4 | Binding of serum 1b to linear peptides of protein N of SARS-CoV Urbani [3]: 0.1 | Binding of serum 1b to looped/cyclic peptides of protein N of SARS-CoV Urbani [3]: 0.2 | Binding of serum 2 to linear peptides of protein N of SARS-CoV Urbani [3]: 0.1 | Binding of serum 2 to looped/cyclic peptides of protein N of SARS-CoV Urbani [3]: 0.4 | Binding of serum 6 to linear peptides of protein N of SARS-CoV Urbani [3]: 0.1 | Binding of serum 6 to looped/cyclic peptides of protein N of SARS-CoV Urbani [3]: 0.3 | Binding of serum 37 to linear peptides of protein N of SARS-CoV Urbani [3]: 0.6 | Binding of serum 37 to looped/cyclic peptides of protein N of SARS-CoV Urbani [3]: 0.7 | Binding of serum 62 to linear peptides of protein N of SARS-CoV Urbani [3]: 0.5 | Binding of serum 62 to looped/cyclic peptides of protein N of SARS-CoV Urbani [3]: 0.6 | Binding of serum London to linear peptides of protein N of SARS-CoV Urbani [3]: 0.4 | Binding of serum London to looped/cyclic peptides of protein N of SARS-CoV Urbani [3]: 0.4 | Binding of serum SARS-green to linear peptides of protein N of SARS-CoV Urbani [3]: 0.2 | Binding of serum SARS-green to looped/cyclic peptides of protein N of SARS-CoV Urbani [3]: 0.4 | Binding of serum SARS-yellow to linear peptides of protein N of SARS-CoV Urbani [3]: 0.6 | Binding of serum SARS-yellow to looped/cyclic peptides of protein N of SARS-CoV Urbani [3]: 0.4 | Control Serum Blood-Bank Looped peptides [4]: 0.8 | Control serum Blood-bank linear peptides [4]: 0.7 | Control serum LUMC linear peptides [4]: 0.6 | Control serum LUMC looped peptides [4]: 0.6

IGMEVTPSGTWLTYH
Binding of a rabbit serum to linear peptides of protein N of SARS-CoV Urbani (Rabbit serum linear peptides) [1]: 0.1 | Binding of a rabbit serum to looped/cyclic peptides of protein N of SARS-CoV Urbani (Rabbit serum looped peptides) [1]: 0.6 | Binding of antibody 03-018 to linear peptides of the N protein of SARS-CoV Urbani [2]: 0.1 | Binding of antibody 03-018 to looped/cyclic peptides of the N protein of SARS-CoV Urbani [2]: 0.2 | Binding of serum 1a to linear peptides of protein N of SARS-CoV Urbani [3]: 0.2 | Binding of serum 1a to looped/cyclic peptides of protein N of SARS-CoV Urbani [3]: 0.5 | Binding of serum 1b to linear peptides of protein N of SARS-CoV Urbani [3]: 0.1 | Binding of serum 1b to looped/cyclic peptides of protein N of SARS-CoV Urbani [3]: 0.3 | Binding of serum 2 to linear peptides of protein N of SARS-CoV Urbani [3]: 0.1 | Binding of serum 2 to looped/cyclic peptides of protein N of SARS-CoV Urbani [3]: 0.5 | Binding of serum 6 to linear peptides of protein N of SARS-CoV Urbani [3]: 0.2 | Binding of serum 6 to looped/cyclic peptides of protein N of SARS-CoV Urbani [3]: 0.3 | Binding of serum 37 to linear peptides of protein N of SARS-CoV Urbani [3]: 0.6 | Binding of serum 37 to looped/cyclic peptides of protein N of SARS-CoV Urbani [3]: 0.8 | Binding of serum 62 to linear peptides of protein N of SARS-CoV Urbani [3]: 0.6 | Binding of serum 62 to looped/cyclic peptides of protein N of SARS-CoV Urbani [3]: 1.0 | Binding of serum London to linear peptides of protein N of SARS-CoV Urbani [3]: 0.5 | Binding of serum London to looped/cyclic peptides of protein N of SARS-CoV Urbani [3]: 0.6 | Binding of serum SARS-green to linear peptides of protein N of SARS-CoV Urbani [3]: 0.3 | Binding of serum SARS-green to looped/cyclic peptides of protein N of SARS-CoV Urbani [3]: 0.7 | Binding of serum SARS-yellow to linear peptides of protein N of SARS-CoV Urbani [3]: 0.5 | Binding of serum SARS-yellow to looped/cyclic peptides of protein N of SARS-CoV Urbani [3]: 0.5 | Control Serum Blood-Bank Looped peptides [4]: 0.8 | Control serum Blood-bank linear peptides [4]: 0.8 | Control serum LUMC linear peptides [4]: 0.6 | Control serum LUMC looped peptides [4]: 0.8
